Assay: Aerosol particle size distribution and number concentration by SEM
Assay type: physicochemical
Settings: mean ± SD, n = 9 SEM images
Protocol: The particle size distribution and number concentration of the CA and CA/magnetite aerosols were determined from samples taken from the delivery apparatus used for the aerosol deposition experiments. Suspensions of CA and CA/magnetite were nebulized, and drawn by vacuum pump along with ambient, drying air at 10 l/min. into a large volume (˜16 1) delivery chamber for 1.5 minutes. With reference to FIG. 5, after filling the delivery chamber 40 with aerosol, valves 46, 48 connecting to the nebulizer 42 and the vacuum pump 44, respectively, were closed, and a butterfly valve 50 at the base 52 of the chamber 40 was opened. Aerosol was then sampled from the base 52 of the chamber 40 onto a 0.2 μm pore polycarbonate membrane (Isopore GTTP04700; Millipore, Billerica, Mass., not shown) for 1 hour at a flow rate of 0.21 l/min., maintained through the delivery chamber using dry, compressed air and a needle valve, and monitored using a low flow rate rotameter (FL-2010; OMEGA Canada, Laval, QC). Over the period of the sampling, the needle valve was adjusted as required to hold the flow rate to within 0.21±0.02 l/min.
After collecting aerosol from the delivery chamber, samples of the polycarbonate membranes were prepared for analysis by scanning electron microscopy (SEM) (S-2500; Hitachi, Japan). For both the CA and CA/magnetite aerosols, three pieces were cut from the membrane, from locations chosen at random, and mounted to SEM stubs using two-sided carbon adhesive tabs. These samples were sputter coated with a thin layer of gold prior to SEM analysis. Images of the samples were taken at 3000× magnification, again from locations chosen at random, and stored digitally.
For three SEM images from each of the three membrane samples, the length and diameter of each particle was manually measured using digital image analysis software (Scion Image; Scion Corporation, Frederick, Md.). The particles were assumed to lie parallel to the face of the membrane. Particle sizing rules were similar to those established for asbestos samples by Platek et al. (1992). Each particle was marked immediately after being sized so as to avoid sizing the same particle twice. Where a particle was not perfectly straight, its length was measured as the arc length along its central axis from one tip to the other. Diameter was measured perpendicular to the central axis at the midpoint along a particle's length, except in rare cases where the particle had two regions of clearly different diameter. In these latter cases, an average of the two diameters was taken. Overlapping particles were sized separately only if both ends of each particle were clearly visible.
After sizing, the volume of each particle was calculated, under the approximation that the particles were cylindrical. Volume-weighted size distributions were then fit with lognormal curves by nonlinear regression to yield a volume median length (VML), volume median diameter (VMD), and geometric standard deviations in both length and diameter (σL and σD), respectively) for each SEM image. In addition, the particle number concentration in the sampled air was calculated for each image from the volume of sampled air, and the ratio between the image area and the total area of the membrane exposed to the aerosol. The mean values of these parameters for the three different membrane samples were compared by one-way ANOVA for independent samples in order to gauge their variation over different locations on the membrane.

- VMD (volume median diameter) (aerosol sampled from delivery chamber): 0.34 ± 0.02 μm
- N (number of particles per unit volume of sampled air): (2.0 ± 0.3) × 10^4 cm^−3
- VML (volume median length): 2.0 ± 0.4 μm
- σD (geometric standard deviation for diameter): 1.5 ± 0.1
- σL (geometric standard deviation for length): 2.1 ± 0.1
Structure (SMILES): O=C(O)c1cc(=O)c2c(OCC(O)COc3cccc4oc(C(=O)O)cc(=O)c34)cccc2o1 [CA, cromoglycic acid]
